Columns and labels:
human subjects = test: Gastrointestinal tolerance study of iced cupcakes (Test Protocol 1; randomized, double-blind, crossover); assay type: in vivo; conditions: after 24 hours; compared to SWEETENER 1
Excerpt: In many embodiments, the sweetener compositions of the invention have improved gastrointestinal tolerance in humans. For example, the sweetener compositions of the invention have improved gastrointestinal tolerance as compared to maltitol. Gastrointestinal tolerance can be measured, for example, using a randomized, double blind, crossover, repeated measure design protocol, such described in Test Protocol 1 in the Example section of the application. In a representative test, a test food comprising a sweetener to be tested is consumed by human subjects, and the subjects are required to complete a gastrointestinal survey at various intervals, prior to and after, consuming the test food. For example, the human subject may complete the survey at 0 hours (i.e., just prior to consuming the test food), 2 hours, 6 hours, 12 hours, and 24 hours after consuming the test food. The food is then rated at the various time periods for gastrointestinal tolerance as evidenced by gastrointestinal effects such as gastrointestinal rumbling, abdominal cramping, gas/bloating, excessive flatulence, loose stools, and diarrhea. […]
The study used a randomized, double-blind, crossover, repeated measure design. […] Diarrhea was recorded as a yes/no response. […]

[1] = in vivo; cited from earlier work

Structure (SMILES) | abdominal cramping (human subjects) | fraction absorbed in the small intestine and excreted unchanged in the urine [1]
OC[C@@H](O)[C@@H](O[C@H]1O[C@H](CO)[C@@H](O)[C@H](O)[C@H]1O)[C@H](O)[C@@H](O)CO [COMP. SWEETENER A, Maltitol] | Significantly milder | –
OC[C@@H](O)[C@@H](O)CO [Erythritol] | – | about 90%
